{
  "source": "paper PMC10338316",
  "about": "“Functional and structural characterization of Streptococcus pneumoniae pyruvate kinase involved in fosfomycin resistance” (The Journal of Biological Chemistry, 2023)",
  "key": {"SpPYK [1]": {"molecular_target": "T1, SpPYK (Streptococcus pneumoniae, UniProt Q8DQ84)", "T1 construct": "gene pykF; recombinant, E. coli BL21(DE3) derivative, His60 Ni resin (tag details in supplement); homotetramer; single pyk gene", "assay": "X-ray crystal structure (FBP, PEP/FBP at […] Å, oxalate/FBP)", "conditions": "allosteric activator; effector binding site in the C domain"}, "SpPYK [2]": {"molecular_target": "T1, SpPYK", "assay": "lactate dehydrogenase coupled assay, NADH absorbance at […] nm", "assay_type": "biochemical", "conditions": "allosteric activator (modest), 2 mM G6P; PEP varied, 3 mM ADP, pH 7.5, 25 °C"}, "SpPYK [3]": {"molecular_target": "T1, SpPYK", "assay": "X-ray crystal structure (PEP; PEP/FBP at […] Å)", "assay_type": "binding", "conditions": "catalytic site, Mg2+ and K+"}, "SpPYK [4]": {"molecular_target": "T1, SpPYK", "assay": "X-ray crystal structure (oxalate; oxalate/FBP)", "assay_type": "binding", "conditions": "catalytic site; enolpyruvate analog; weak density for a second oxalate in the effector site"}, "[5]": {"system": "Nc1ncnc2c1ncn2[C@@H]1O[C@H](COP(=O)(O)OP(=O)(O)O)[C@@H](O)[C@H]1O", "assay": "purified protein", "conditions": "3 mM PEP, 10 mM MgCl2, 100 mM KCl, 20 mM HEPES pH 7.5, 25 °C, Hill coefficient 1.47 ± 0.07"}, "C=C(OP(=O)(O)O)C(=O)O": {"system": "C=C(OP(=O)(O)O)C(=O)O", "assay": "purified protein", "conditions": "3 mM ADP, 10 mM MgCl2, 100 mM KCl, 20 mM HEPES pH 7.5, 25 °C, no effector, Hill coefficient 1.88 ± 0.10"}, "[6]": {"molecular_target": "the molecule itself", "assay": "crystal structure; X-ray crystal structures of SpPYK in six states (apo, oxalate, oxalate/FBP, FBP, PEP, PEP/FBP); vapor diffusion at 25 °C, 15 to 20 mg/ml protein in 20 mM HEPES pH 7.5, 150 mM NaCl, for the ligand-bound forms with 100 mM KCl, 20 mM MgCl2 and 5-20 mM ligand(s); protomers of the tetramer"}},
  "data": [
    {"molecule": "O=P(O)(O)OC[C@H]1OC(O)(COP(=O)(O)O)[C@@H](O)[C@@H]1O", "note": "(stereo partly shown) [FBP, fructose 1,6-bisphosphate]", "values": [
      {"measurement": "X-ray crystal structure (FBP, PEP/FBP at 1.8 Å, oxalate/FBP)", "setting": "SpPYK [1]", "result": "FBP is found at the effector binding site in the C domain"}
    ]},
    {"molecule": "O=P(O)(O)OC[C@H]1OC(O)[C@H](O)[C@@H](O)[C@@H]1O", "note": "(stereo partly shown) [G6P, glucose 6-phosphate]", "values": [
      {"measurement": "lactate dehydrogenase coupled assay, NADH absorbance at 340 nm", "setting": "SpPYK [2]", "result": "only a modest activation effect was observed upon G6P addition"}
    ]},
    {"molecule": "C=C(OP(=O)(O)O)C(=O)O", "note": "[PEP, phosphoenolpyruvate]", "values": [
      {"measurement": "X-ray crystal structure (PEP; PEP/FBP at 1.8 Å)", "setting": "SpPYK [3]", "result": "The bound PEP or oxalate is seen in the catalytic site"}
    ]},
    {"molecule": "O=C(O)C(=O)O", "note": "[oxalate]", "values": [
      {"measurement": "X-ray crystal structure (oxalate; oxalate/FBP)", "setting": "SpPYK [4]", "result": "The bound PEP or oxalate is seen in the catalytic site"}
    ]},
    {"molecule": "SpPYK (Streptococcus pneumoniae R6)", "values": [
      {"measurement": "K0.5", "setting": "[5]", "result": "1.09 ± 0.06", "unit": "mM"},
      {"measurement": "K0.5", "setting": "C=C(OP(=O)(O)O)C(=O)O", "result": "1.36 ± 0.06", "unit": "mM"}
    ]},
    {"molecule": "Streptococcus pneumoniae pyruvate kinase (enzyme, pyruvate kinase (PYK) of Streptococcus pneumoniae, wild type; the strain of the cloned gene and the construct limits are told only in the Supporting information; Homotetramer in the crystal structures; also called SpPYK; PYK) MNKRVKIVATLGPAVEIRGGKKFGEDGYWGEKLDVEASAKNIAKLIEAGANTFRFNFSHGDHQEQGERMATVKLAEKIAGKKVGFLLDTKGPEIRTELFEGEAKEYSYKTGEKIRVATKQGIKSTREVIALNVAGALDIYDDVEVGRQVLVDDGKLGLRVVAKDDATREFEVEVENDGIIAKQKGVNIPNTKIPFPALAERDNDDIRFGLEQGINFIAISFVRTAKDVNEVRAICEETGNGHVQLFAKIENQQGIDNLDEIIEAADGIMIARGDMGIEVPFEMVPVYQKMIIKKVNAAGKVVITATNMLETMTEKPRATRSEVSDVFNAVIDGTDATMLSGESANGKYPLESVTTMATIDKNAQALLNEYGRLDSDSFERNSKTEVMASAVKDATSSMDIKLVVTLTKTGHTARLISKYRPNADILALTFDELTERGLMLNWGVIPMLTDAPSSTDDMFEIAERKAVEAGLVESGDDIVIVAGVPVGEAVRTNTMRIRTVR", "values": [
      {"measurement": "stoichiometry N", "setting": "[6]", "result": 4}
    ]}
  ]
}
